Reference: publication PMC5433425 (PeerJ, 2017)
Where two headings read alike, the source gives them in different places.

Legend:
E. coli AG100 = test: EtBr accumulation by real-time fluorometry; details: EtBr 1 µg/ml + inhibitor 80 µM
E. coli AG100tet = test: EtBr efflux by real-time fluorometry; details: 80 µM
Protocol: Control tubes with only cells and cells with and without 0.4% glucose were included. The fluorescence was measured in a Rotor-Gene 3000 and the data was acquired every 30 s for 30 min at 37 °C. The efflux activity was quantified by comparing the fluorescence data obtained under conditions that promote efflux (presence of glucose and absence of efflux inhibitor) with the data from the control in which the bacteria are under conditions of no efflux (presence of an inhibitor and no energy source).

E. coli AG100A = test: microbe, parasite or virus in culture; type: cell-based, Escherichia coli; details: for MIC: Escherichia coli, AG100A
Protocol: The minimum inhibitory concentrations (MICs) were determined using the broth microdilution method according to the CLSI guidelines ([Clinical and Laboratory Standards Institute, 2014]). […] Two-fold serial dilutions of the compounds were made to achieve the following concentrations: 320 µM–40 µM. The MICs were determined as the lowest concentration at which no visible growth was observed after 18 h of incubation at 37 °C. The assays were performed in triplicate and the MIC value was given as result of at least two concordant values.

`CN(C)CCCN1c2ccccc2Sc2ccc(Cl)cc21` [CPZ, chlorpromazine] was tested, and the EtBr fluorescence (E. coli AG100; cycle 1) was 6.13, the EtBr fluorescence (E. coli AG100; cycle 2) was 8.192 and the EtBr fluorescence (E. coli AG100; cycle 3) was 10.0781. The EtBr fluorescence (E. coli AG100; cycle 4) was 12.1665, the EtBr fluorescence (E. coli AG100; cycle 5) was 14.1022 and the EtBr fluorescence (E. coli AG100; cycle 6) was 16.1694. It also gave an EtBr fluorescence (E. coli AG100; cycle 7) of 18.3713, an EtBr fluorescence (E. coli AG100; cycle 8) of 20.6676 and an EtBr fluorescence (E. coli AG100; cycle 9) of 22.7314. The EtBr fluorescence (E. coli AG100; cycle 10) was 24.8681, the EtBr fluorescence (E. coli AG100; cycle 11) was 27.4474 and the EtBr fluorescence (E. coli AG100; cycle 12) was 29.5933. The EtBr fluorescence (E. coli AG100; cycle 13) was 31.7973, the EtBr fluorescence (E. coli AG100; cycle 14) was 34.5154 and the EtBr fluorescence (E. coli AG100; cycle 15) was 36.8928. For the same compound, the EtBr fluorescence (E. coli AG100; cycle 16) was 39.2786, the EtBr fluorescence (E. coli AG100; cycle 17) was 41.9426 and the EtBr fluorescence (E. coli AG100; cycle 18) was 44.0663. For the same compound, the EtBr fluorescence (E. coli AG100; cycle 19) was 46.4485, the EtBr fluorescence (E. coli AG100; cycle 20) was 49.5818 and the EtBr fluorescence (E. coli AG100; cycle 21) was 51.5786. It also gave an EtBr fluorescence (E. coli AG100; cycle 22) of 54.5618, an EtBr fluorescence (E. coli AG100; cycle 23) of 56.7461 and an EtBr fluorescence (E. coli AG100; cycle 24) of 59.3586. It also gave an EtBr fluorescence (E. coli AG100; cycle 25) of 62.2682, an EtBr fluorescence (E. coli AG100; cycle 26) of 64.3897 and an EtBr fluorescence (E. coli AG100; cycle 27) of 67.0371. The EtBr fluorescence (E. coli AG100; cycle 28) was 69.6952, the EtBr fluorescence (E. coli AG100; cycle 29) was 72.3896 and the EtBr fluorescence (E. coli AG100; cycle 30) was 75.3315. The “Fluorescence raw data, Channel Cycling A.530/585hp” value (shortened to “Fluorescence raw data”) (E. coli AG100tet; cycle 1, + glucose) was 6.9729, the “Fluorescence raw data” value (E. coli AG100tet; cycle 1, without glucose) was 6.962 and the “Fluorescence raw data” value (E. coli AG100tet; cycle 2, + glucose) was 6.777. The “Fluorescence raw data” value (E. coli AG100tet; cycle 2, without glucose) was 6.801, the “Fluorescence raw data” value (E. coli AG100tet; cycle 3, + glucose) was 6.512 and the “Fluorescence raw data” value (E. coli AG100tet; cycle 3, without glucose) was 6.754. For the same compound, the “Fluorescence raw data” value (E. coli AG100tet; cycle 4, without glucose) was 6.877, the “Fluorescence raw data” value (E. coli AG100tet; cycle 5, without glucose) was 7.026 and the “Fluorescence raw data” value (E. coli AG100tet; cycle 6, without glucose) was 7.1507. The “Fluorescence raw data” value (E. coli AG100tet; cycle 7, without glucose) was 7.108, the “Fluorescence raw data” value (E. coli AG100tet; cycle 8, without glucose) was 7.075 and the “Fluorescence raw data” value (E. coli AG100tet; cycle 9, + glucose) was 6.252. The “Fluorescence raw data” value (E. coli AG100tet; cycle 9, without glucose) was 7.246, the “Fluorescence raw data” value (E. coli AG100tet; cycle 10, + glucose) was 6.3883 and the “Fluorescence raw data” value (E. coli AG100tet; cycle 10, without glucose) was 7.315. For the same compound, the “Fluorescence raw data” value (E. coli AG100tet; cycle 11, + glucose) was 6.371, the “Fluorescence raw data” value (E. coli AG100tet; cycle 11, without glucose) was 7.397 and the “Fluorescence raw data” value (E. coli AG100tet; cycle 12, + glucose) was 6.405. For the same compound, the “Fluorescence raw data” value (E. coli AG100tet; cycle 12, without glucose) was 7.4437, the “Fluorescence raw data” value (E. coli AG100tet; cycle 13, + glucose) was 6.558 and the “Fluorescence raw data” value (E. coli AG100tet; cycle 13, without glucose) was 7.742. For the same compound, the “Fluorescence raw data” value (E. coli AG100tet; cycle 14, + glucose) was 6.536, the “Fluorescence raw data” value (E. coli AG100tet; cycle 14, without glucose) was 7.795 and the “Fluorescence raw data” value (E. coli AG100tet; cycle 15, + glucose) was 6.4669. The “Fluorescence raw data” value (E. coli AG100tet; cycle 15, without glucose) was 7.899, the “Fluorescence raw data” value (E. coli AG100tet; cycle 16, + glucose) was 6.613 and the “Fluorescence raw data” value (E. coli AG100tet; cycle 16, without glucose) was 7.989. The “Fluorescence raw data” value (E. coli AG100tet; cycle 17, + glucose) was 6.675, the “Fluorescence raw data” value (E. coli AG100tet; cycle 17, without glucose) was 8.041 and the “Fluorescence raw data” value (E. coli AG100tet; cycle 18, + glucose) was 6.686. The “Fluorescence raw data” value (E. coli AG100tet; cycle 18, without glucose) was 8.027, the “Fluorescence raw data” value (E. coli AG100tet; cycle 19, + glucose) was 6.605 and the “Fluorescence raw data” value (E. coli AG100tet; cycle 19, without glucose) was 8.219. For the same compound, the “Fluorescence raw data” value (E. coli AG100tet; cycle 20, + glucose) was 6.711, the “Fluorescence raw data” value (E. coli AG100tet; cycle 20, without glucose) was 8.174 and the “Fluorescence raw data” value (E. coli AG100tet; cycle 21, + glucose) was 6.762. For the same compound, the “Fluorescence raw data” value (E. coli AG100tet; cycle 21, without glucose) was 8.255, the “Fluorescence raw data” value (E. coli AG100tet; cycle 22, + glucose) was 6.7278 and the “Fluorescence raw data” value (E. coli AG100tet; cycle 22, without glucose) was 8.507. The “Fluorescence raw data” value (E. coli AG100tet; cycle 23, + glucose) was 6.745, the “Fluorescence raw data” value (E. coli AG100tet; cycle 23, without glucose) was 8.467 and the “Fluorescence raw data” value (E. coli AG100tet; cycle 24, + glucose) was 6.771. The “Fluorescence raw data” value (E. coli AG100tet; cycle 24, without glucose) was 8.6, the “Fluorescence raw data” value (E. coli AG100tet; cycle 25, + glucose) was 6.796 and the “Fluorescence raw data” value (E. coli AG100tet; cycle 25, without glucose) was 8.667. The “Fluorescence raw data” value (E. coli AG100tet; cycle 26, + glucose) was 6.92, the “Fluorescence raw data” value (E. coli AG100tet; cycle 26, without glucose) was 8.734 and the “Fluorescence raw data” value (E. coli AG100tet; cycle 27, + glucose) was 6.8217. For the same compound, the “Fluorescence raw data” value (E. coli AG100tet; cycle 27, without glucose) was 8.768, the “Fluorescence raw data” value (E. coli AG100tet; cycle 28, + glucose) was 6.925 and the “Fluorescence raw data” value (E. coli AG100tet; cycle 28, without glucose) was 8.988. For the same compound, the “Fluorescence raw data” value (E. coli AG100tet; cycle 29, + glucose) was 6.828, the “Fluorescence raw data” value (E. coli AG100tet; cycle 29, without glucose) was 9.111 and the “Fluorescence raw data” value (E. coli AG100tet; cycle 30, + glucose) was 6.9. The “Fluorescence raw data” value (E. coli AG100tet; cycle 30, without glucose) was 8.957, the “Fluorescence raw data” value (E. coli AG100tet; cycle 31, + glucose) was 6.782 and the “Fluorescence raw data” value (E. coli AG100tet; cycle 31, without glucose) was 9.091. For the same compound, the “Fluorescence raw data” value (E. coli AG100tet; cycle 32, + glucose) was 6.729, the “Fluorescence raw data” value (E. coli AG100tet; cycle 32, without glucose) was 9.229 and the “Fluorescence raw data” value (E. coli AG100tet; cycle 33, + glucose) was 6.907. For the same compound, the “Fluorescence raw data” value (E. coli AG100tet; cycle 33, without glucose) was 9.3007, the “Fluorescence raw data” value (E. coli AG100tet; cycle 34, + glucose) was 6.901 and the “Fluorescence raw data” value (E. coli AG100tet; cycle 34, without glucose) was 9.345. The “Fluorescence raw data” value (E. coli AG100tet; cycle 35, + glucose) was 6.783, the “Fluorescence raw data” value (E. coli AG100tet; cycle 35, without glucose) was 9.405 and the “Fluorescence raw data” value (E. coli AG100tet; cycle 36, + glucose) was 6.785. For the same compound, the “Fluorescence raw data” value (E. coli AG100tet; cycle 36, without glucose) was 9.367, the “Fluorescence raw data” value (E. coli AG100tet; cycle 37, + glucose) was 6.975 and the “Fluorescence raw data” value (E. coli AG100tet; cycle 37, without glucose) was 9.488. For the same compound, the “Fluorescence raw data” value (E. coli AG100tet; cycle 38, + glucose) was 6.976, the “Fluorescence raw data” value (E. coli AG100tet; cycle 38, without glucose) was 9.581 and the “Fluorescence raw data” value (E. coli AG100tet; cycle 39, + glucose) was 6.681. The “Fluorescence raw data” value (E. coli AG100tet; cycle 39, without glucose) was 9.571, the “Fluorescence raw data” value (E. coli AG100tet; cycle 40, + glucose) was 6.952 and the “Fluorescence raw data” value (E. coli AG100tet; cycle 40, without glucose) was 9.707. For the same compound, the “Fluorescence raw data” value (E. coli AG100tet; cycle 41, + glucose) was 6.766, the “Fluorescence raw data” value (E. coli AG100tet; cycle 41, without glucose) was 9.731 and the “Fluorescence raw data” value (E. coli AG100tet; cycle 42, + glucose) was 6.916. For the same compound, the “Fluorescence raw data” value (E. coli AG100tet; cycle 42, without glucose) was 9.718, the “Fluorescence raw data” value (E. coli AG100tet; cycle 43, + glucose) was 6.844 and the “Fluorescence raw data” value (E. coli AG100tet; cycle 43, without glucose) was 9.8689. For the same compound, the “Fluorescence raw data” value (E. coli AG100tet; cycle 44, + glucose) was 6.82, the “Fluorescence raw data” value (E. coli AG100tet; cycle 44, without glucose) was 9.768 and the “Fluorescence raw data” value (E. coli AG100tet; cycle 45, without glucose) was 9.807. The “Fluorescence raw data” value (E. coli AG100tet; cycle 46, without glucose) was 9.797, the “Fluorescence raw data” value (E. coli AG100tet; cycle 47, without glucose) was 9.663 and the “Fluorescence raw data” value (E. coli AG100tet; cycle 48, without glucose) was 9.794. For the same compound, the “Fluorescence raw data” value (E. coli AG100tet; cycle 49, without glucose) was 9.745, the “Fluorescence raw data” value (E. coli AG100tet; cycle 50, without glucose) was 9.769 and the “Fluorescence raw data” value (E. coli AG100tet; cycle 51, without glucose) was 9.982. For the same compound, the “Fluorescence raw data” value (E. coli AG100tet; cycle 52, without glucose) was 9.725, the “Fluorescence raw data” value (E. coli AG100tet; cycle 53, without glucose) was 9.758 and the “Fluorescence raw data” value (E. coli AG100tet; cycle 54, without glucose) was 9.768. For the same compound, the “Fluorescence raw data” value (E. coli AG100tet; cycle 55, without glucose) was 9.755, the “Fluorescence raw data” value (E. coli AG100tet; cycle 56, without glucose) was 9.766 and the “Fluorescence raw data” value (E. coli AG100tet; cycle 57, without glucose) was 9.676. The “Fluorescence raw data” value (E. coli AG100tet; cycle 58, without glucose) was 9.567, the “Fluorescence raw data” value (E. coli AG100tet; cycle 59, without glucose) was 9.679 and the “Fluorescence raw data” value (E. coli AG100tet; cycle 60, without glucose) was 9.626. For the same compound, the “Fluorescence raw data” value (E. coli AG100tet; cycle 61, without glucose) was 9.5963, the “reduction in TET MIC” value (E. coli AG100A; AG100A (pump-deficient strain)) was 4 fold and the MIC (E. coli AG100A; read-out: MIC of EtBr in presence of the efflux inhibitor) was 0.39 µg/mL. For the same compound, the MIC (E. coli AG100A; read-out: MIC of OFX in presence of the efflux inhibitor) was 0.015 µg/mL, the MIC (E. coli AG100A; read-out: MIC of OXA in presence of the efflux inhibitor) was 2 µg/mL and the MIC (E. coli AG100A; read-out: MIC of TET in presence of the efflux inhibitor) was 0.125 µg/mL.
